Experimental data published in PMC7497641, “Neurotropic activity and safety of methylene-cycloalkylacetate (MCA) derivative 3-(3-allyl-2-methylenecyclohexyl) propanoic acid” (ACS Chemical Neuroscience, 2020).

Columns and labels:
[1] = target: T1, Adrenergic Receptor α2A (ADRA2A) (Homo sapiens, UniProt P08913); assay: SAFETYscan GPCR cAMP; type: cell-based
T1 construct: host or cells: cAMP Hunter cell lines

[2] = target: Adrenergic Receptor β2 (ADRB2) (Homo sapiens, UniProt P07550); assay: SAFETYscan GPCR cAMP; type: cell-based
[3] = target: Muscarinic acetylcholine Receptor M1 (CHRM1) (Homo sapiens, UniProt P11229); assay: cell-based; conditions: Calcium Flux, read-out: RC50 (the source's name)
[4] = target: T2, Muscarinic acetylcholine Receptor M2 (CHRM2) (Homo sapiens, UniProt P08172); assay: SAFETYscan GPCR cAMP; type: cell-based
T2 construct: host or cells: cAMP Hunter cell lines

[5] = target: T3, Cannabinoid Receptor 1 (CNR1) (Homo sapiens, UniProt P21554); assay: SAFETYscan GPCR cAMP; type: cell-based
T3 construct: host or cells: cAMP Hunter cell lines

[6] = target: Histamine Receptor H2 (HRH2) (Homo sapiens, UniProt P25021); assay: SAFETYscan GPCR cAMP; type: cell-based; conditions: read-out: RC50 (the source's name)
[7] = target: T4, 5-Hydroxy tryptamine (Serotonin) Receptor 1A (HTR1A) (Homo sapiens, UniProt P08908); assay: SAFETYscan GPCR cAMP; type: cell-based
T4 construct: host or cells: cAMP Hunter cell lines

[8] = target: T5, Opioid Receptor Mu 1 (OPRM1) (Homo sapiens, UniProt P35372); assay: cell-based; conditions: cAMP, read-out: RC50 (the source's name)
T5 construct: host or cells: cAMP Hunter cell lines

[9] = target: T6, 5-Hydroxy-tryptamine (Serotonin) Receptor 3A (HTR3A) (Homo sapiens, UniProt P46098); assay: SAFETYscan Ion channel assay; type: cell-based
T6 construct: host or cells: unnamed DiscoverX cell line

[10] = target: A tetrodotoxin-resistant voltage-gated sodium channel (NAVI1.5) (Homo sapiens, UniProt Q14524); assay: cell-based
[11] = target: T7, Lymphocyte Cell-Specific Protein-Tyrosine Kinase (Src family) (LCK) (Homo sapiens, UniProt P06239); assay: SAFETYscan KINOMEscan binding assay; conditions: Inhibitor
T7 construct: host or cells: E. coli BL21-derived host (T7 phage) or HEK-293

[12] = target: T8, Acetylcholinesterase (AChE) (Homo sapiens, UniProt P22303); assay: SAFETYscan Enzymatic assay; type: biochemical
T8 construct: purchased R&D Systems

[13] = Single-dose acute tolerance, intravenous; type: in vivo, Male C57BL/6 mice; conditions: 250 mg/kg intravenously
Experimental: This pilot study was conducted according to guidance for industry single dose acute toxicity testing for pharmaceuticals (https://www.fda.gov/regulatory-information/search-fda-guidance-documents/single-dose-acute-toxicity-testing-pharmaceuticals) to obtain acute information on the dose toxicity of HU-MCA-13 in male mice. Male C57BL/6 mice were injected intravenously with 0.2 mL of HU-MCA-13 in a dose of 250 mg/kg. […] The mortality and changes on body weight, clinical signs and gross observation, were monitored up to 30 days after treatment.
Sensory motor/neurological performance
The performance was weekly measured using several routine motor tests, but no neurological losses w ere observed (Table 1). Sensory motor tests were scored individually and according to the neurologic function severity score (NSS). The data from each individual test and the total score calculated from individual tests that make up the mNSS were measured. The following tests were […]
a. Beam balance test -mice were placed on a 2.5 cm wide beam for 60 seconds. A normal response is balance with steady posture for 60 seconds (a score of 0). Deficits are scored if the rat:
1. Grasps the side of the beam (score of 1); 2. Hugs the beam and one limb falls down from the beam (score of 2); 3. Hugs the beam and two limbs fall off the beam (score of 3); 4. Try to balance on the beam, but falls off from 60 seconds (score of 4); 5. Try to balance on the beam but falls off from 60 seconds (score of 5); 6. Falls off with no attempt to balance or hang on the beam in les s than 20 seconds (score of 6). b. Foot fault test- dysfunction of forelimb movement, while walking on elevated metal grids.
The animal was placed on horizontal grids (85 ×26 ×20) cm with a glass enclosure for observation.
With each weight bearing step, the forelimb can fall or slip between the metal support bars, an event recorded as a foot fault. The total number of forelimb steps and the total number of foot faults were counted. The percentage of forelimb foot faults to the total steps that occurred within 2 minutes represent the test results. c. Hind limb placing test- This assay monitors reposition of hind limbs placed down and away from the table edge. The ability to retrieve and place the hind limbs back onto the table was measured. Immediate and complete limb retrieval was scored 0, delayed (>2 seconds) limb retrieval and/or interspersed flailing was scored 1, and no limb retrieval was scored 2; d. Increasing platform angle to slide test- This assay measures the strength and stability of resistance to slide down an inclined platform. It deploys a clean wooden board (60 X 40 cm) positioned horizontally. Mice were placed on the board with head facing up the increasing incline.
The board then swings to increase the degree of inclination the rat experiences until slipping down the board feet first. The degree of the angle at which the rat relinquishes their grip/stance on the board (slips down) represents the test results; […]
e. Forelimb whole body suspension test- This assay measure s grip strength by duration of suspen sion by forepaws. The rat is suspended o n a metal bar (diameter of 5 mm) which it tightly holds onto by its forelimbs. The time (seconds) during which each rat could sustain its body weight while holding onto the bar is measured. The mice drop from the bar onto soft material with no harm. The test was repeated three times and a mean result per rat was used as the score. […]

[14] = target: Voltage-gated L-type calcium channel (CAV1.2) (Homo sapiens, UniProt Q13936); assay: cell-based

T6 sequence (P46098 24-478): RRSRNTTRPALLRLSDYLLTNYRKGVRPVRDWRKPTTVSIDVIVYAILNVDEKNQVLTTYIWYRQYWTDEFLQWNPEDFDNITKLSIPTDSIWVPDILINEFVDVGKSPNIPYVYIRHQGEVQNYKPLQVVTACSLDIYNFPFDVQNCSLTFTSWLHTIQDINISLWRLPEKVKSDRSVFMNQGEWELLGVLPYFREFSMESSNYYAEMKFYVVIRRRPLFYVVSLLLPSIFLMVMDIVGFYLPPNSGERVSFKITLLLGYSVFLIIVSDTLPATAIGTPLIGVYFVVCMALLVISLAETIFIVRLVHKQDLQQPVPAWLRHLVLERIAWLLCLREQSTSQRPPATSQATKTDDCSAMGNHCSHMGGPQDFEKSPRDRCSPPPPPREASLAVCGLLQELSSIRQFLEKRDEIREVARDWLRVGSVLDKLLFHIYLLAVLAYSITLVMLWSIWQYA
Chain of Adrenergic Receptor β2 (ADRB2) (P07550 whole entry): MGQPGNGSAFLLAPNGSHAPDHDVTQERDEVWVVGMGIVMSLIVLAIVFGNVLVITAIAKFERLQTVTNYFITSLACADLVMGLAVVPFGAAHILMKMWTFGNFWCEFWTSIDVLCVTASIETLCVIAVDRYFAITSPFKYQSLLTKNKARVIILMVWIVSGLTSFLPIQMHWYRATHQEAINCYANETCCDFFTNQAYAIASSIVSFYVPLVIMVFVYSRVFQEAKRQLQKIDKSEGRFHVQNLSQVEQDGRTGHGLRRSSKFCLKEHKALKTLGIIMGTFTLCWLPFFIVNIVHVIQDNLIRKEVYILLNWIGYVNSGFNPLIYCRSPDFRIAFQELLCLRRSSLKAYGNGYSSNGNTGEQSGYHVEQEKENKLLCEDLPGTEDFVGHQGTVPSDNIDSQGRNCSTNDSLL
T4 sequence (P08908 whole entry): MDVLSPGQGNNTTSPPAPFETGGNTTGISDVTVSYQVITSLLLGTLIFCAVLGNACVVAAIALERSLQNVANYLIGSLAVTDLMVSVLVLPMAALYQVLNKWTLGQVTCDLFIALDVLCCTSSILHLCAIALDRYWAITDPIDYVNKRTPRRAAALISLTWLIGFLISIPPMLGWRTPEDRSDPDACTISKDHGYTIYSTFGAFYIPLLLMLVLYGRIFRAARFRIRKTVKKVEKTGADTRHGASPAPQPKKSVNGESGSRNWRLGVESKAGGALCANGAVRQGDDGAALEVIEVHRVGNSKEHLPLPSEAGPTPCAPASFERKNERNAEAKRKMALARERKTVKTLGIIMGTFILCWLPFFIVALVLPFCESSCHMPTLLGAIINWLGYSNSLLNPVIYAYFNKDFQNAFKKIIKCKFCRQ
Chain of Muscarinic acetylcholine Receptor M1 (CHRM1) (P11229 whole entry): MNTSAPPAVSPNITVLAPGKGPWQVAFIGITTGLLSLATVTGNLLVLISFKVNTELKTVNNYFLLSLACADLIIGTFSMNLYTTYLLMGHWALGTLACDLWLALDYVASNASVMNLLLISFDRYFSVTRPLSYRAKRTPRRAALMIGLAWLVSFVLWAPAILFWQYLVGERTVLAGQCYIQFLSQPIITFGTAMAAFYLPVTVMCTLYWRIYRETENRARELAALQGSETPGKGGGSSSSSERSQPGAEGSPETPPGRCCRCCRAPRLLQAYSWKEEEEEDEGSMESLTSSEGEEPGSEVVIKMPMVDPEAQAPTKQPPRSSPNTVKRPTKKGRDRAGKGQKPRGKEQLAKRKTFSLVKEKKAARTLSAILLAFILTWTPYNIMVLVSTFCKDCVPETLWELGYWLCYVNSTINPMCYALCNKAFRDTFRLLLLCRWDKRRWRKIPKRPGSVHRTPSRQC
T5 sequence (P35372 whole entry): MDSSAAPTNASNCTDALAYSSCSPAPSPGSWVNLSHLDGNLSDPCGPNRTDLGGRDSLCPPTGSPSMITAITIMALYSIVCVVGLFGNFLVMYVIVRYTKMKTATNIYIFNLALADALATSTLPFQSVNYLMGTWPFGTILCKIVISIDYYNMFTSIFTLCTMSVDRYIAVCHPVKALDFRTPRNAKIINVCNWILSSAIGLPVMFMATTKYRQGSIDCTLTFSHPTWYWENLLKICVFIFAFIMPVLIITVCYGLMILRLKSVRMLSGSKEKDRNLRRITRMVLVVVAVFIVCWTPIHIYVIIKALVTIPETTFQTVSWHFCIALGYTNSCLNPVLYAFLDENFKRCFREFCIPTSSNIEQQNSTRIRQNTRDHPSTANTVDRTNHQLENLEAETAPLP
T8 sequence (P22303 32-614): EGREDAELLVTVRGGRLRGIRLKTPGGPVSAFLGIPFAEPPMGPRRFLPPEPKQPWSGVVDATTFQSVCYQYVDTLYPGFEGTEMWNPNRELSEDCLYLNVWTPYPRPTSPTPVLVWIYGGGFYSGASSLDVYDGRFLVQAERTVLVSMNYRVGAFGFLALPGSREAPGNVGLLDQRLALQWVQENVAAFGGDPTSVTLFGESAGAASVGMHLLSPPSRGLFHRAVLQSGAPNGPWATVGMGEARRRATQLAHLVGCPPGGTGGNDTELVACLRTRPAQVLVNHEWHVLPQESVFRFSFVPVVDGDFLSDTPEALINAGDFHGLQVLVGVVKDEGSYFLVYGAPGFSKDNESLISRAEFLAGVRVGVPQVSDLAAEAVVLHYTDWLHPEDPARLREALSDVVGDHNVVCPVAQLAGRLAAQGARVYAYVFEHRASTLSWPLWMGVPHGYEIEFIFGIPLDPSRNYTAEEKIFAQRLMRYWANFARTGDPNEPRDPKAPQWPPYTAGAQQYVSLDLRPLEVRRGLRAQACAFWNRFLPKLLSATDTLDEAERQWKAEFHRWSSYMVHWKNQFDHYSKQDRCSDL
T3 sequence (P21554 whole entry): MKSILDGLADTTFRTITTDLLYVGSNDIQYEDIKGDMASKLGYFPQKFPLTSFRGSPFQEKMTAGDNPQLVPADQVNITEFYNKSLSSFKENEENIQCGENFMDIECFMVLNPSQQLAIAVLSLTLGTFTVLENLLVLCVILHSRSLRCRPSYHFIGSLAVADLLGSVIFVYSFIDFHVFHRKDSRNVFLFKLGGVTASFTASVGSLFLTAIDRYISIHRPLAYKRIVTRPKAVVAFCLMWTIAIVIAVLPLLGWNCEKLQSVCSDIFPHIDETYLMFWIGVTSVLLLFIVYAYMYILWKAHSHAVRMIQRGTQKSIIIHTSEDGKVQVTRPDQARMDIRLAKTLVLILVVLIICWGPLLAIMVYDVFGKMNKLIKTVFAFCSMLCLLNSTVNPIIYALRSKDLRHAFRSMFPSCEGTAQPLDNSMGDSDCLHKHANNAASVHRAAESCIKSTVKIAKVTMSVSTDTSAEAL
T2 sequence (P08172 whole entry): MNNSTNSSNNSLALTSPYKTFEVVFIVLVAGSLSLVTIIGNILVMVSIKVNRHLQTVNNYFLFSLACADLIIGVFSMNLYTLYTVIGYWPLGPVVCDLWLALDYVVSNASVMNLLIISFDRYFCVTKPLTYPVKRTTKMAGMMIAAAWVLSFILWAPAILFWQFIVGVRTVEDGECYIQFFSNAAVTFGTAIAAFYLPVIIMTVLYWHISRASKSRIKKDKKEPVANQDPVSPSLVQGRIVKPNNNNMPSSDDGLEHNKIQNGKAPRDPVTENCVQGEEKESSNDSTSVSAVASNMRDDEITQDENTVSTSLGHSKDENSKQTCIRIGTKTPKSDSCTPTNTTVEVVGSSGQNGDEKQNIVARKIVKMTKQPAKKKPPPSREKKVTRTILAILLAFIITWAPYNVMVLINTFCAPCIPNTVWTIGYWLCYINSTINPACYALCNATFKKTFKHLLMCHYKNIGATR
T1 sequence (P08913 whole entry): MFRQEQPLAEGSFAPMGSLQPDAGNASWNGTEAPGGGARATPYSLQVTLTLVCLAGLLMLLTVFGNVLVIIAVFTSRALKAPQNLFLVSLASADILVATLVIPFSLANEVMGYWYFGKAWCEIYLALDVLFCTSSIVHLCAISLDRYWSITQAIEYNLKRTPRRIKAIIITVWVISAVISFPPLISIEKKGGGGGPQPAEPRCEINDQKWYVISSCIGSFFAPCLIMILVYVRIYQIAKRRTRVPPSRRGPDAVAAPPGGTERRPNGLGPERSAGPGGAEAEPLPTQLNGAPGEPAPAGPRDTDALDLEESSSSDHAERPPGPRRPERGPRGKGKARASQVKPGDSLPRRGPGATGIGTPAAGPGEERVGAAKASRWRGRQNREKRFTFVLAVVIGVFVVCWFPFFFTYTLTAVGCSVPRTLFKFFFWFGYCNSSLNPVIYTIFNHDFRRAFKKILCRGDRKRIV
Chain of Histamine Receptor H2 (HRH2) (P25021 whole entry): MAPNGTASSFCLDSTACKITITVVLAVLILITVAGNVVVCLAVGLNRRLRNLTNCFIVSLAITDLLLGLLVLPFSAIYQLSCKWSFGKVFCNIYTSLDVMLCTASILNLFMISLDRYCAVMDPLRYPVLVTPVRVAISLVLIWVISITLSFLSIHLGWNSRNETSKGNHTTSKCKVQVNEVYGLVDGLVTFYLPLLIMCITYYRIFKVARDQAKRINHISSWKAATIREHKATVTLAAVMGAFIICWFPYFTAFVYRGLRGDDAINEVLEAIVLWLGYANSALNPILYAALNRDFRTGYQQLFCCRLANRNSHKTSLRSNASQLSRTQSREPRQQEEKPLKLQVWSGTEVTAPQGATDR

C=CCC1CCCC(CCC(=O)O)C1=C (centres unmarked) [HU-MCA-13, 3-(3-allyl-2-methylenecyclohexyl)propanoic acid]
EC50 [1]: > 10 µM
IC50 [1]: > 10 µM
EC50 [2]: > 10 µM
IC50 [2]: > 10 µM
EC50 ([3]; Agonist): > 10 µM
IC50 ([3]; Antagonist): > 10 µM
EC50 [4]: > 10 µM
IC50 [4]: > 10 µM
EC50 [5]: > 10 µM
IC50 [5]: > 10 µM
EC50 ([6]; Agonist): > 10 µM
IC50 ([6]; Antagonist): > 10 µM
EC50 [7]: > 10 µM
IC50 [7]: > 10 µM
EC50 ([8]; Agonist): > 10 µM
IC50 ([8]; Antagonist): > 10 µM
EC50 [9]: > 10 µM
IC50 [9]: > 10 µM
IC50 [10]: > 10 µM
inhibition at 10 µM ([11]; 10 μM, read-out: MCA-13 Max. Responce): 12.8%
IC50 ([11]; read-out: RC50 (the source's name)): > 10 µM
IC50 [12]: > 10 µM
inhibition at 10 µM ([12]; 10 μM, Inhibitor, Enzymatic, read-out: MCA-13 Max. Responce): 4.27%
autonomic symptoms (salivation, urinary delivery, pupillary constriction, hair contraction) versus DMSO [13]: no differences were observed
mortality ([13]; single dose, monitored up to 30 days): could not find any mortality
sensory-motor performance, neurologic function severity score (NSS) ([13]; first week after injection): no neurological losses were observed
changes on body weight versus 1% DMSO treated group ([13]; up to 30 days): No significant changes
body weight at end ([13]; up to 30 days, started with 21 g): 27 g
IC50 [14]: > 10 µM
